One experiment deals with HT-1080 cells. Put plainly: Ferroptosis cell viability assay (Erastin-induced, CellTiter-Glo). It is filed as cell-based. The settings on record: read-out: EC50, inhibition for ferroptosis in HT-1080 cell. On the procedure:
Cell Lines and Media: HT-1080 (fibrosarcoma) cells were obtained from American Type Culture Collection. Cells were grown in EMEM media, 10% Heat-Inactivated FBS, and penicillin-streptomycin mix (Invitrogen). Cells were maintained at 37° C. and 5% CO2 in a tissue culture incubator.
Cell Viability Assay. Seed 10,000 cell/well of HT-1080 cells with 195 μL growth media in black and clear bottom 96-well plates (Cat #Corning3904) and allow cells to adhere overnight. The next day, dilute test compound by 2-fold dilution into 12 points with medium containing 400 μM Erastin. Transfer 5 μL of compounds solution into growth medium in triplicated wells. 30 hours later, add Cell Titer-Glo® Luminescent cell viability assay reagent (Cat #, Promega G8081) to measure HT-1080 cell viability according to the manufacture protocol. Briefly, aspirate 100 μL medium, and add 50 μL CellTiter-Glo® Luminescent reagent to each well and incubated for 30 minutes at room temperature to stabilize the Luminescent signal. Seal the plates and centrifuged for 1 minute at 1,000 rpm to remove bubbles. Shake the plates for 1 minute on an orbital shaker. Read the plate to detect Luminescent signal with EnSpire Multimode Plate Reader (PerkinElmer). The remaining activity % is used to evaluate Erastin induced ferroptosis in HT-1080 cells and expressed as the following formula: % Remaining Activity=100×[(Sample−Backgroundavg)/(Vehicle−Backgroundavg)]
Sample: Readout from the test compound
Vehicle: Readout from the vehicle sample
Background: Readout from the Erastin only treatment
Dose response curve is graphed by using the non-linear regression analysis (formula equation 201) in XLFit (Excel add-in software) for the average % remaining activity from triplicates, and the EC50 values is then calculated. In this anti-ferroptosis assay, ferrostatin-1, and XJB-5-131 are included as reference. The acceptance criteria were set based on historical result, mean±2.58*SD in logarithmic scale, meanwhile Z′>0.5.
For orientation: ATP-based viability assays read luminescence as a measure of living cells.

In a further experiment the test system is 3T3-L1 cells. Put plainly: Apoptosis assay (Caspase-Glo 3/7, Actinomycin D induced). In kind it is cell-based. Particulars: 100 nM Actinomycin D, read-out: EC50, inhibition for apoptosis in 3T3-L1 cell induced by Actinomycin D. The procedure:
Cell Lines and Media. 3T3-L1 cells were obtained from American Type Culture Collection. Cells were grown in DMEM completed media, 10% FBS, and penicillin-streptomycin mix (Invitrogen). Cells were maintained at 37° C. and 5% CO2 in a tissue culture incubator.
Apoptosis Assay. […] We used this assay to screen our compounds for apoptosis inhibition. Briefly, 40 μL of 3000 3T3-L1 cells were seeded per well in 384 well plates, Cells were allowed to adhere overnight. In the next day, prepare the Actinomycin D as the apoptosis inducing agent into 100 μM DMSO stock. Prepare the test compounds into 10 mM DMSO stock. Serial dilute the compound into 10 points by 3-fold dilution with DMSO. Pre-treat the 3T3-L1 cells with test compound by transfer 40 nL of stock of serial concentration in triplicate wells using acoustic fluid transfer, incubate for 2 hours. Then transfer 40 nL of 100 μM of Actinomycin D (final concentration is 100 nM) into designated wells using acoustic fluid transfer. Incubate the assay plates at 37° C., 5% CO2, 95% humidity incubator for 48 hours. For caspase assay, add 20 μL/well of Caspase-Glo® 3/7 reagent (Promega) into test wells. Incubate for 30 minutes at room temperature to stabilize the luminescence signal. Read the plate with EnSpire Multimode Plate Reader (PerkinElmer). Calculate the EC50 value using formula equation 201: y=(A+((B−A)/(1+((x/C)^D)))) from the XLFit (Excel add-in software), where • A: Average mean of vehicle samples • B: Average mean of cells treated with 100 nM AcD • C: EC50 • D: HillSlope Z′ factor was used to describe the screening assay performance. The Z′ factor value was >0.5 in all the test plates which indicated the assay was qualified and the IC50 value was reliable for all tested compounds.

Usually EC50 stands for the concentration at which the effect is half-maximal.

Molecules are shown by their SMILES. Like-named read-outs stand apart in the source and are kept apart here.

As to `CC1=C(C)C(=O)C(CCC(=O)NCCCC[C@H](NC(=O)[C@@H]2CCCN2C(=O)[C@H](/C=C/[C@H](CC(C)C)NC(=O)OC(C)(C)C)Cc2ccccc2)C(=O)NC(C)C)=CC1=O` [I, tert-Butyl ((4S,7S,E)-7-benzyl-8-((S)-2-(((S)-6-(3-(4,5-dimethyl-3,6-dioxocyclohexa-1,4-dien-1-yl)propanamido)-1-(isopropylamino)-1-oxohexan-2-yl)carbamoyl)pyrrolidin-1-yl)-2-methyl-8-oxooct-5-en-4-yl)carbamate], the EC50 is 119 nM in the experiment on HT-1080 cells (30 hours) and 1150 nM in the experiment with 3T3-L1 cells (Mus musculus, 3T3-L1, 48 h).
Take `COC1=C(OC)C(=O)C(CCCCCCCCCCOC(=O)NCCCC[C@H](NC(=O)[C@@H]2CCCN2C(=O)[C@H](/C=C/[C@H](CC(C)C)NC(=O)OC(C)(C)C)Cc2ccccc2)C(=O)NC(C)C)=C(C)C1=O` [III, tert-butyl N-[(4S,5E,7S)-7-benzyl-8-[(2S)-2-{[(1S)-5-[({[10-(4,5-dimethoxy-2-methyl-3,6-dioxocyclohexa-1,4-dien-1-yl)decyl]oxy}carbonyl)amino]-1-[(propan-2-yl)carbamoyl]pentyl]carbamoyl}pyrrolidin-1-yl]-2-methyl-8-oxooct-5-en-4-yl]carbamate]: in the experiment with HT-1080 cells (Homo sapiens, HT-1080, 30 h), the EC50 was 34.6 nM.
`CC1=C(C)C(=O)C(CCCOC(=O)NCCCC[C@H](NC(=O)[C@@H]2CCCN2C(=O)[C@H](/C=C/[C@H](CC(C)C)NC(=O)OC(C)(C)C)Cc2ccccc2)C(=O)NC(C)C)=CC1=O` [II]: the 50% effective concentration (EC50) with HT-1080 cells (30 hours) was 33 nM.
`CC1=C(C)C(=O)C(CCC(=O)NCCCC[C@H](NC(=O)[C@@H]2CCCN2C(=O)[C@H](/C=C/[C@H](CC(C)C)NC(=O)OC(C)(C)C)Cc2ccccc2)C(=O)NC(C)C)=CC1=O` [IV, tert-Butyl ((4S,7S,E)-7-benzyl-8-((S)-2-(((S)-6-(3-(4,5-dimethyl-3,6-dioxocyclohexa-1,4-dien-1-yl)propanamido)-1-(isopropylamino)-1-oxohexan-2-yl)carbamoyl)pyrrolidin-1-yl)-2-methyl-8-oxooct-5-en-4-yl) carbamate]: the EC50 in the experiment with HT-1080 cells (30 hours) is 24.4 nM; with 3T3-L1 cells (48 hours), 702 nM.
With `CC1=C(C)C(=O)C(CCCOC(=O)NCCCC[C@H](NC(=O)[C@@H]2CCCN2C(=O)[C@H](/C=C/[C@H](CC(C)C)NC(=O)OCC2CC2)Cc2ccccc2)C(=O)NC(C)C)=C(C)C1=O` [IX, Cyclopropylmethyl N-[(4S,5E,7S)-7-benzyl-2-methyl-8-oxo-8-[(2S)-2-{[(1S)-1-[(propan-2-yl)carbamoyl]-5-({[3-(2,4,5-trimethyl-3,6-dioxocyclohexa-1,4-dien-1-yl)propoxy]carbonyl}amino)pentyl]carbamoyl}pyrrolidin-1-yl]oct-5-en-4-yl]carbamate], in the experiment with HT-1080 cells (Homo sapiens, HT-1080, 30 h), the 50% effective concentration (EC50) was found to be 49.3 nM.
`CC1=C(C)C(=O)C(CCCOC(=O)NCCCC[C@H](NC(=O)[C@@H]2CCCN2C(=O)[C@H](/C=C/[C@H](CC(C)C)NC(=O)OC(C)(C)C)Cc2ccccc2)C(=O)NC(C)C)=CC1=O` [V, tert-butyl N-[(4S,5E,7S)-7-benzyl-8-[(2S)-2-{[(1S)-5-({[3-(4,5-dimethyl-3,6-dioxocyclohexa-1,4-dien-1-yl)propoxy]carbonyl}amino)-1-[(propan-2-yl)carbamoyl]pentyl]carbamoyl}pyrrolidin-1-yl]-2-methyl-8-oxooct-5-en-4-yl]carbamate]: the EC50 in the experiment on HT-1080 cells (Homo sapiens, HT-1080, 30 h) amounted to 196 nM; with 3T3-L1 cells (Mus musculus, 3T3-L1, 48 h), 2740 nM.
Regarding `CCOC(=O)N[C@H](/C=C/[C@H](Cc1ccccc1)C(=O)N1CCC[C@H]1C(=O)N[C@@H](CCCCC1=C(C)C(=O)C(C)=C(C)C1=O)C(=O)NC(C)C)CC(C)C` [VII, ethyl ((4S,7S,E)-7-benzyl-8-((S)-2-(((S)-1-(isopropylamino)-1-oxo-6-(2,4,5-trimethyl-3,6-dioxocyclohexa-1,4-dien-1-yl)hexan-2-yl)carbamoyl)pyrrolidin1-yl)-2-methyl-8-oxooct-5-en-4-yl)carbamate], the EC50 in the experiment on HT-1080 cells (Homo sapiens, HT-1080, 30 h) was found to be 80.5 nM.
With `COc1c(C)c(C)c(OC)c(CCCOC(=O)NCCC[C@H](NC(=O)[C@@H](NC(=O)[C@@H]2CCCN2C(=O)[C@H](/C=C/[C@H](CC(C)C)NC(=O)OC(C)(C)C)Cc2ccccc2)C(C)C)C(=O)NC(C)C)c1C` [VIII, tert-butyl N-[(4S,5E,7S)-7-benzyl-8-[(2S)-2-{[(1S)-1-{[(1S)-4-({[3-(2,5-dimethoxy-3,4,6-trimethylphenyl)propoxy]carbonyl}amino)-1-[(propan-2-yl)carbamoyl]butyl]carbamoyl}-2-methylpropyl]carbamoyl}pyrrolidin-1-yl]-2-methyl-8-oxooct-5-en-4-yl]carbamate], the 50% effective concentration (EC50) in the experiment on HT-1080 cells (Homo sapiens, HT-1080, 30 h) was > 6000 nM.
In the case of `CC1=C(C)C(=O)C(CCCC[C@H](NC(=O)[C@@H]2CCCN2C(=O)[C@H](/C=C/[C@H](CC(C)C)NC(=O)OC(C)(C)C)Cc2ccccc2)C(=O)NC(C)C)=C(C)C1=O` [VI], the EC50 in the experiment with HT-1080 cells (30 hours) amounted to 39.1 nM; in the experiment on 3T3-L1 cells (48 hours) it was 7320 nM.
As for `CC1=C(C)C(=O)C(CCCOc2ccc(C[C@H](NC(=O)[C@@H]3CCCN3C(=O)[C@H](/C=C/[C@H](CC(C)C)NC(=O)OC(C)(C)C)Cc3ccccc3)C(=O)NC(C)C)cc2)=C(C)C1=O` [X, tert-Butyl ((4S,7S,E)-7-benzyl-8-((S)-2-(((S)-1-(isopropylamino)-1-oxo-3-(4-(3-(2,4,5-trimethyl-3,6-dioxocyclohexa-1,4-dien-1-yl)propoxy)phenyl)propan-2-yl)carbamoyl)pyrrolidin-1-yl)-2-methyl-8-oxooct-5-en-4-yl)carbamate], the EC50 in the experiment on HT-1080 cells (Homo sapiens, HT-1080, 30 h) was 56.9 nM.
Same read-out and setting: then `CC1=C(C)C(=O)C(CCCOC(=O)NCCC[C@H](NC(=O)[C@@H](NC(=O)[C@@H]2CCCN2C(=O)[C@H](/C=C/[C@H](CC(C)C)NC(=O)OC(C)(C)C)Cc2ccccc2)C(C)C)C(=O)NC(C)C)=C(C)C1=O` [XI, tert-butyl N-[(4S,5E,7S)-7-benzyl-2-methyl-8-[(2S)-2-{[(1S)-2-methyl-1-{[[(1S)-1-[(propan-2-yl)carbamoyl]-4-({3-(2,4,5-trimethyl-3,6-dioxocyclohexa-1,4-dien-1-yl)propoxy]carbonyl}amino)butyl]carbamoyl}propyl]carbamoyl}pyrrolidin-1-yl]-8-oxooct-5-en-4-yl]carbamate], with 47 nM; and `CC1=C(C)C(=O)C(CCCOC(=O)NCCC[C@H](NC(=O)[C@@H]2CCCN2C(=O)[C@H](/C=C/[C@H](CC(C)C)NC(=O)OC(C)(C)C)Cc2ccccc2)C(=O)NC2CC2)=C(C)C1=O` [XII, 3-(2,4,5-trimethyl-3,6-dioxocyclohexa-1,4-dien-1-yl)propyl N-[(4S)-4-{[(2S)-1-[(2S,3E,5S)-2-benzyl-5-{[(tert-butoxy)carbonyl]amino}-7-methyloct-3-enoyl]pyrrolidin-2-yl]formamido}-4-(cyclopropylcarbamoyl)butyl] carbamate], with 149 nM.

Source of the values: patent US11692008B2, “Preparation and uses of reactive oxygen species scavenger derivatives” (XWPHARMA LTD., priority 2017, dated 2023).
